According to publication PMC11339798, “Dual inhibitors of Pseudomonas aeruginosa virulence factors LecA and LasB” (Chemical Science, 2024):

Test system: LecA-FITC binding to human A549 cells
Assay: Inhibition of LecA-FITC adhesion to A549 cells by fluorescence microscopy
Assay type: cell-based
Details: 100 μM compound, 10 μM LecA-FITC, 4 °C, 30 min
Protocol: LecA-mediated cell adhesion is crucial for the initial infection and host-cell invasion of P. aeruginosa. Therefore, compounds 1 and 2, a combination of 1+2 and the dual inhibitor 12 were assessed for their ability to inhibit LecA-binding to human A549 cells. 10 μM of LecA-FITC and different concentrations of the respective compounds were incubated at 4 °C for 30 min with confluent A549 cells.
10 min, facilitating the separation of bacterial cells from the supernatant. The latter was filtered through a 0.22 µm sterile filter and stored at –80 °C until further use. […]
CO2. […] The plates were then incubated for an additional 30 min at 37 °C and then, the UV absorbance was measured using a PHERAstar microplate reader. The test samples were read at a wavelength of 550 nm, while the blank was read at 620 nm. At last, the data were statistically analyzed and presented graphically using GraphPad Prism 9 (Figure S4 and S5). […]
have any negative effects. The plate was then incubated at 4 °C for 30 min and wells were washed 5 times with PBS prior to imaging via fluorescence microscopy.
Fluorescence image acquisition, processing, and quantification
Fluorescence images were captured using an inverted fluorescence microscope (Leica DMi8) equipped with a 20x objective (HC PL APO CS2 20x/0.75 IMM UV), an FITC filter cube (EX: […]

CC(C)CC(S)C(=O)Nc1ccc(S[C@@H]2O[C@H](CO)[C@H](O)[C@H](O)[C@H]2O)cc1 (stereo partly shown) [Compound 12]
inhibition of binding of LecA-FITC to A549 cells: significantly inhibited the binding of LecA-FITC to A549 cells to the background level
